Data on one compound can be found in patent publication US7507335B2, “Dendrimer fluid purification agent and article” (KWG Technology, priority 2003, dated 2009).

Where two headings read alike, the source gives them in different places.

The subject of one experiment is Pseudomonas aerugentoas. Put plainly: Paper disc zone of inhibition test (Example Two). In kind it is cell-based. Particulars: 6-millimeter disc, 10 microliters, 24 hours. On the procedure: (§1) A second sample of a dendrimer silver complex was tested against various concentrations of silver nitrate against both E. coli and Pseudomonas aerugentoas. The experiment was performed as follows: • 1. Prepare an inoculum of the test organisms by streaking the entire surface of agar plates, by the standard method for colony isolation, with ether E. coli or pseudomonas aerugentoas. The plates were incubated at 370 C for approximately 18 hours. • 2. Harvest all the growth on the test organism plates by flooding the plats with 9.0 ml of sterile distilled water per plate. Wash the harvested biomass by centrifugation for 1 hour at 3000 rpm, discarding the supernatant fluid, and resuspending in 9.0 ml of sterile distilled water. Resuspend harvested cell by vortex agitation for 1 minute. • 3. Inoculate test plates with 0.2 ml with the test organism prepare as described above. • 4. Place sterile 6-millimeter blank paper Discs on test plates and saturate with 10 microliters of the test substances. • 5. […]

For a further experiment, the system named is E. coli. In kind it is cell-based. Particulars: 6-millimeter disc, 10 microliters, 24 hours. On the procedure: as §1

`O=[N+]([O-])[O-].[Ag+]` [Silver Nitrate]: the “Pseudomonas (diameter of inhibitory zone)” value with Pseudomonas aerugentoas (0.5% Silver Nitrate) is 12 millimeters; in the experiment on Pseudomonas aerugentoas (1.0% Silver Nitrate), 9 millimeters; with Pseudomonas aerugentoas (2.5% Silver Nitrate), 6 millimeters; with Pseudomonas aerugentoas (5.0% Silver Nitrate), 6 millimeters; with Pseudomonas aerugentoas (7.5% Silver Nitrate), 7 millimeters; in the experiment on Pseudomonas aerugentoas (10.0% Silver Nitrate), 11 millimeters. For the same compound, the “E. Coli (diameter of inhibitory zone)” value in the experiment on E. coli (0.5% Silver Nitrate), with E. coli (1.0% Silver Nitrate), in the experiment on E. coli (2.5% Silver Nitrate), with E. coli (5.0% Silver Nitrate), in the experiment with E. coli (7.5% Silver Nitrate) and in the experiment on E. coli (10.0% Silver Nitrate) was 6 millimeters in each case.
